ChEMBL document CHEMBL1201862, “PubChem BioAssay data set” (2004)
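Growth conditions: 96-well plates. Treatment: test compound, 48 hours, 5 concentrations. Analysis: linear interpolation between bracketing concentrations; unreached endpoints set to highest concentration. Here, GI50 denotes the concentration required for 50% inhibition of growth.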 Activity calls are given as the source filed them. No stated cut-off is given here; in the data, active = GI50 up to about 1.1 µM and inactive = higher.

Tests used:
Experiment in all cases: NCI tumour cell line growth inhibition, 48 h
KM-20L2 = tested on: KM-20L2
786-0 = tested on: 786-0
KM12 = tested on: KM12
OVCAR-5 = tested on: OVCAR-5
LOX IMVI = tested on: LOX IMVI
M14 = tested on: M14
HL-60 = tested on: HL-60
TK-10 = tested on: TK-10
OVCAR-3 = tested on: OVCAR-3
SNB-75 = tested on: SNB-75
UACC-62 = tested on: UACC-62
SNB-19 = tested on: SNB-19
SF-268 = tested on: SF-268
UACC-257 = tested on: UACC-257
SF-539 = tested on: SF-539
NCI-H23 = tested on: NCI-H23
OVCAR-8 = tested on: OVCAR-8
MDA-N = tested on: MDA-N
T47D = tested on: T47D
BT-549 = tested on: BT-549

| SMILES | GI50 (KM-20L2) | GI50 (786-0) | GI50 (KM12) | GI50 (OVCAR-5) | GI50 (LOX IMVI) | GI50 (M14) | GI50 (HL-60) | GI50 (TK-10) | GI50 (OVCAR-3) | GI50 (SNB-75) | GI50 (UACC-62) | GI50 (SNB-19) | GI50 (SF-268) | GI50 (UACC-257) | GI50 (SF-539) | GI50 (NCI-H23) | GI50 (OVCAR-8) | GI50 (MDA-N) | GI50 (T47D) | GI50 (BT-549) |
| --- | --- | --- | --- | --- | --- | --- | --- | --- | --- | --- | --- | --- | --- | --- | --- | --- | --- | --- | --- | --- |
| O=C(CSc1nc(-c2ccccc2)c(-c2ccccc2)[nH]1)NNC(=S)Nc1ccccc1 | > 100 µM (inactive) | > 100 µM (inactive) | > 100 µM (inactive) | > 100 µM (inactive) | 71 µM (inactive) | 94.6 µM (inactive) | 22.8 µM (inactive) | 53.2 µM (inactive) | 59.8 µM (inactive) | > 100 µM (inactive) | 0.277 µM (active) | > 100 µM (inactive) | > 100 µM (inactive) | > 100 µM (inactive) | > 100 µM (inactive) | > 100 µM (inactive) | 46.7 µM (inactive) |  |  |  |
| COC(=O)C(Cc1cc(OC)c(OC)c(OC)c1)c1ccc(OC)cc1 (stereo not drawn) | > 100 µM (inactive) | > 100 µM (inactive) | > 100 µM (inactive) | 44.7 µM (inactive) | 79.3 µM (inactive) | > 100 µM (inactive) | 95.5 µM (inactive) | > 100 µM (inactive) | 95.7 µM (inactive) |  | > 100 µM (inactive) | > 100 µM (inactive) | > 100 µM (inactive) | > 100 µM (inactive) | > 100 µM (inactive) |  | > 100 µM (inactive) |  |  |  |
| Cn1cc(NC(=O)c2cc(NC(=O)Nc3cc(C(=O)Nc4cc(C(=O)NCCC(=N)N)n(C)c4)n(C)c3)cn2C)cc1C(=O)NCCC(=N)N | 60.5 µM (inactive) | 20.7 µM (inactive) | 17 µM (inactive) | > 100 µM (inactive) | 25.4 µM (inactive) | 20.4 µM (inactive) | 60.7 µM (inactive) | 22.5 µM (inactive) | 41.1 µM (inactive) | 40.5 µM (inactive) | 16.9 µM (inactive) | > 100 µM (inactive) | 36.4 µM (inactive) | 17.7 µM (inactive) | 18 µM (inactive) | 37.4 µM (inactive) | 22.8 µM (inactive) |  |  |  |
| CCOC(=O)C(=O)CC1=Nc2ccccc2SC(c2cccc(C)c2)C1 (stereo not drawn) | 17.9 µM (inactive) | 17.9 µM (inactive) | 16.2 µM (inactive) | 16.8 µM (inactive) |  | 18.6 µM (inactive) |  |  | 19.5 µM (inactive) | 18.9 µM (inactive) | 16.9 µM (inactive) | 18.3 µM (inactive) | 16.8 µM (inactive) | 19 µM (inactive) | 19 µM (inactive) | 17.1 µM (inactive) | 12.6 µM (inactive) |  |  |  |
| COC(=O)C1=CCC2c3[nH]c4ccccc4c3CCN2C1 (stereo not drawn) | > 354 µM (inactive) | > 354 µM (inactive) | > 354 µM (inactive) |  | > 354 µM (inactive) |  | > 354 µM (inactive) | > 354 µM (inactive) | 275 µM (inactive) |  | > 354 µM (inactive) | 193 µM (inactive) | > 354 µM (inactive) | 169 µM (inactive) | > 354 µM (inactive) | > 354 µM (inactive) | > 354 µM (inactive) |  |  |  |
| C=C1CC(C/C=C(\C)CC2CC(=C)C(=O)O2)OC1=O (stereo not drawn) | > 100 µM (inactive) | > 100 µM (inactive) | > 100 µM (inactive) | > 100 µM (inactive) | > 100 µM (inactive) | > 100 µM (inactive) | > 100 µM (inactive) | > 100 µM (inactive) | > 100 µM (inactive) | > 100 µM (inactive) | > 100 µM (inactive) | > 100 µM (inactive) | > 100 µM (inactive) | > 100 µM (inactive) | > 100 µM (inactive) | > 100 µM (inactive) | > 100 µM (inactive) |  |  |  |
| Cc1ccc(S(=O)(=O)c2c(N)c3nc4ccccc4n3c3nc4ccccc4nc23)cc1 | > 100 µM (inactive) | 4.93 µM (inactive) | > 100 µM (inactive) | > 100 µM (inactive) | > 100 µM (inactive) | > 100 µM (inactive) |  |  | > 100 µM (inactive) | > 100 µM (inactive) | > 100 µM (inactive) | > 100 µM (inactive) | > 100 µM (inactive) | > 100 µM (inactive) | 9.27 µM (inactive) | > 100 µM (inactive) | > 100 µM (inactive) |  |  |  |
| C=CCN(c1cc(OCc2ccccc2)c(NC(C)=O)cc1[N+](=O)[O-])S(C)(=O)=O |  | 20.6 µM (inactive) | > 100 µM (inactive) | > 100 µM (inactive) | 50.6 µM (inactive) | 38.3 µM (inactive) | > 100 µM (inactive) | 36.5 µM (inactive) | 34.9 µM (inactive) | 20 µM (inactive) | 58.9 µM (inactive) | 17.9 µM (inactive) | 21.3 µM (inactive) | > 100 µM (inactive) | 17.2 µM (inactive) | 18.4 µM (inactive) | 23.1 µM (inactive) | > 100 µM (inactive) | 29.3 µM (inactive) | 28.8 µM (inactive) |
